Data from article PMC9516332 (Frontiers in Oncology, 2022).
Read-outs that look alike come from different tables or passages of the source.

Tests used:
Test in all cases: Kinase panel profiling at 1 µmol/L (MSA or IMAP), percentage inhibition
Assay type in all cases: biochemical
[1] = target: panel of 255 wild-type kinases (Homo sapiens, UniProt O96013); conditions: read-out: %-inhibition, PAK4
[2] = target: panel of 255 wild-type kinases (Homo sapiens, UniProt P11802); conditions: read-out: %-inhibition CDK4/CycD3
[3] = target: panel of 255 wild-type kinases (Homo sapiens, UniProt P17612); conditions: read-out: %-inhibition at 1 µmol/L, PKACα
[4] = target: panel of 255 wild-type kinases (Homo sapiens, UniProt P23443); conditions: read-out: %-inhibition, p70S6K
[5] = target: panel of 255 wild-type kinases (Homo sapiens, UniProt P53779); conditions: read-out: %-inhibition at 1 µmol/L, JNK3
[6] = target: panel of 255 wild-type kinases (Homo sapiens, UniProt P54646); conditions: read-out: %-inhibition AMPKα2/β1/γ1
[7] = target: T1, panel of 255 wild-type kinases (Homo sapiens, UniProt Q02156); conditions: read-out: %-inhibition at 1 µmol/L, PKCε
T1 sequence (Q02156 1-737): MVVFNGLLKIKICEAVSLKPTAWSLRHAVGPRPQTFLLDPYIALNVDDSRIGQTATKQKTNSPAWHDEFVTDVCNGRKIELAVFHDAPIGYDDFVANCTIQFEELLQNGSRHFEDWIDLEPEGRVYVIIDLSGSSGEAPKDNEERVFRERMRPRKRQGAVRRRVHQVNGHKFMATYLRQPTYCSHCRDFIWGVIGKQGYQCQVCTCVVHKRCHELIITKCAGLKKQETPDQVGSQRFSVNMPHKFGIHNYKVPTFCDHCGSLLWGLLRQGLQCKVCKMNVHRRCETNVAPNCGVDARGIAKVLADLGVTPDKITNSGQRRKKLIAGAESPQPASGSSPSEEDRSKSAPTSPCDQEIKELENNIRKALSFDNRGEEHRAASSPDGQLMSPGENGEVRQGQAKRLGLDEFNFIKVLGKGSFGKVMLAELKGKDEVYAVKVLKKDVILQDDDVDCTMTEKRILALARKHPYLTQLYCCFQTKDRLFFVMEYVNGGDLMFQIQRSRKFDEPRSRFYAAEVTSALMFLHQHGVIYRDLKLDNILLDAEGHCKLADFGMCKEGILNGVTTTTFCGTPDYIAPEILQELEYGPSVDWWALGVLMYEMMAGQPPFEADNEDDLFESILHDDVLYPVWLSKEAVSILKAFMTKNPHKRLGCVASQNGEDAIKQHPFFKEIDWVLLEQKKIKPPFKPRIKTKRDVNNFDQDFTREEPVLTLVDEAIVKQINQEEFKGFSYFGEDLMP

[8] = target: panel of 255 wild-type kinases (Homo sapiens, UniProt Q05655); conditions: read-out: %-inhibition at 1 µmol/L, PKCδ
[9] = target: panel of 255 wild-type kinases (Homo sapiens, UniProt Q08345); conditions: read-out: %-inhibition at 1 µmol/L, DDR1
[10] = target: panel of 255 wild-type kinases (Homo sapiens, UniProt Q13882); conditions: read-out: %-inhibition BRK
[11] = target: panel of 255 wild-type kinases (Homo sapiens, UniProt Q15418); conditions: read-out: %-inhibition at 1 µmol/L, RSK1
[12] = target: panel of 255 wild-type kinases (Homo sapiens, UniProt Q7KZI7); conditions: read-out: %-inhibition, MARK2
[13] = target: panel of 255 wild-type kinases (Homo sapiens, UniProt Q86V86); conditions: read-out: %-inhibition at 1 µmol/L, PIM3
[14] = target: panel of 255 wild-type kinases (Homo sapiens, UniProt Q96RG2); conditions: read-out: %-inhibition, PASK
[15] = target: T2, panel of 255 wild-type kinases (Homo sapiens, UniProt Q9BXA7); conditions: read-out: %-inhibition at 1 µmol/L, TSSK1
T2 sequence (Q9BXA7 1-367): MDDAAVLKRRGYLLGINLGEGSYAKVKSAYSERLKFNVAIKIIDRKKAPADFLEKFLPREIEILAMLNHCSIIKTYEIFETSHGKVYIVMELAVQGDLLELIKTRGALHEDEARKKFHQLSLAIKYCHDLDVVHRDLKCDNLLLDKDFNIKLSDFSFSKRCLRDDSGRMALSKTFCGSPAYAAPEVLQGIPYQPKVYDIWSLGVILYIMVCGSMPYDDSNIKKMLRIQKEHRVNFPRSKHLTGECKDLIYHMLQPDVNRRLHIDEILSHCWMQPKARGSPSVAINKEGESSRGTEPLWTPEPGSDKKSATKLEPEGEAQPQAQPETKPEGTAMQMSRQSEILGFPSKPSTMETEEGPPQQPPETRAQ

[16] = target: panel of 255 wild-type kinases (Homo sapiens, UniProt Q9Y463); conditions: read-out: %-inhibition at 1 µmol/L, DYRK1B
[17] = PAK4, 1 µmol/L single concentration
[18] = CDK4/CycD3 kinase assay, 1 µmol/L single concentration
[19] = kinase PKACα, 1 µmol/L single concentration
[20] = p70S6K, 1 µmol/L single concentration
[21] = kinase JNK3, 1 µmol/L single concentration
[22] = AMPKα2/β1/γ1 kinase assay, 1 µmol/L single concentration
[23] = kinase PKCε, 1 µmol/L single concentration
[24] = kinase PKCδ, 1 µmol/L single concentration
[25] = kinase DDR1, 1 µmol/L single concentration
[26] = BRK kinase assay, 1 µmol/L single concentration
[27] = kinase RSK1, 1 µmol/L single concentration
[28] = MARK2, 1 µmol/L single concentration
[29] = kinase PIM3, 1 µmol/L single concentration
[30] = PASK, 1 µmol/L single concentration
[31] = kinase TSSK1, 1 µmol/L single concentration
[32] = kinase DYRK1B, 1 µmol/L single concentration

inhibition at 1 µM [1, 17] [%]	inhibition at 1 µM [9, 25] [%]	inhibition at 1 µM [11, 27] [%]	SMILES	inhibition at 1 µM [2, 18] [%]	inhibition at 1 µM [3, 19] [%]	inhibition at 1 µM [4, 20] [%]	inhibition at 1 µM [5, 21] [%]	inhibition at 1 µM [6, 22] [%]	inhibition at 1 µM [7, 23] [%]	inhibition at 1 µM [8, 24] [%]	inhibition at 1 µM [10, 26] [%]	inhibition at 1 µM [12, 28] [%]	inhibition at 1 µM [13, 29] [%]	inhibition at 1 µM [14, 30] [%]	inhibition at 1 µM [15, 31] [%]	inhibition at 1 µM [16, 32] [%]	also measured
0.0966	3.8	-0.527	Cc1nc(NC(=O)N2CCC[C@H]2C(N)=O)sc1-c1ccnc(C(C)(C)C(F)(F)F)c1 [alpelisib]	-10	-13	9	-12	2.22	15	-7.56	2.75	-0.36	-13	-2	-5	8	
-2.71	-0.162	-5.55	Cn1cnc2c(F)c(Nc3ccc(Br)cc3F)c(C(=O)NOCCO)cc21 [binimetinib]	3.25	-12	4.72	7	-3.67	11	-9	1.08	-6	5	-2.45	0.849	-7	
			CNC(=O)c1ccc(-c2cnc3ncc(Cc4ccc5ncccc5c4)n3n2)cc1F [capmatinib]														inhibition at 1 µM [1]: 1%; inhibition at 1 µM [2]: -3.55%; inhibition at 1 µM [3]: -28%; inhibition at 1 µM [4]: 5.68%; inhibition at 1 µM [5]: 5%; inhibition at 1 µM [6]: -1.21%; inhibition at 1 µM [7]: -19%; inhibition at 1 µM [8]: -10%; inhibition at 1 µM [9]: -2.22e-14%; inhibition at 1 µM [10]: -0.67%; inhibition at 1 µM [11]: 1.52%; inhibition at 1 µM [12]: -8%; inhibition at 1 µM [13]: 1.78%; inhibition at 1 µM [14]: -5%; inhibition at 1 µM [15]: 3%; inhibition at 1 µM [16]: 1.71%
-3.66	101	4.37	COc1cc2ncnc(Nc3ccc(F)c(Cl)c3)c2cc1NC(=O)/C=C/CN1CCCCC1 [dacomitinib]	-0.81	-11	33	0.338	-3	8	9	53	-0.433	23	5.35	-2.48	7	
0.277	6	-0.755	C[C@H](Nc1ncnc2nc[nH]c12)c1cc2cccc(Cl)c2c(=O)n1-c1ccccc1 [duvelisib]	-10	-7.56	6	-10	-0.155	13	1.67	4.54	-2.13	-7	-0.608	-4	-0.692	

SMILES	inhibition at 1 µM [1, 17] [%]	inhibition at 1 µM [9, 25] [%]	inhibition at 1 µM [11, 27] [%]	inhibition at 1 µM [2, 18] [%]	inhibition at 1 µM [3, 19] [%]	inhibition at 1 µM [4, 20] [%]	inhibition at 1 µM [5, 21] [%]	inhibition at 1 µM [6, 22] [%]	inhibition at 1 µM [7, 23] [%]	inhibition at 1 µM [8, 24] [%]	inhibition at 1 µM [10, 26] [%]	inhibition at 1 µM [12, 28] [%]	inhibition at 1 µM [13, 29] [%]	inhibition at 1 µM [14, 30] [%]	inhibition at 1 µM [15, 31] [%]	inhibition at 1 µM [16, 32] [%]	also measured
Cn1cc(-c2cc3c(N4CCN(c5ncc([C@@](C)(N)c6ccc(F)cc6)cn5)CC4)ncnn3c2)cn1 [avapritinib]	8		-7	9	-20	20	2.14	3	-2.54	5	0.682	-12	9	13	2.83	47	
COC(=O)N[C@@H](C)CNc1nccc(-c2cn(C(C)C)nc2-c2cc(Cl)cc(NS(C)(=O)=O)c2F)n1 [encorafenib]	-2.13	0.442	-2	10	-10	14	59	0.723	-7	-2.67	25	5.68	10	-3	3	-3.42	
CN1CCN(c2ccc(C(=O)Nc3n[nH]c4ccc(Cc5cc(F)cc(F)c5)cc34)c(NC3CCOCC3)c2)CC1 [entrectinib]		99		-7.43	-7	25	-1.69	79	27	8	88	9	-10	1.19	8	6	
C[C@H]1Oc2cc(cnc2N)-c2c(nn(C)c2C#N)CN(C)C(=O)c2ccc(F)cc21 [lorlatinib]	1.84		2.31	-7	-8	8	-8.55	2.22	10	5	63	11	-6	0.792	84	-2.8	
